Data reported in patent US8623889B2, “Substituted 6,6-fused nitrogenous heterocyclic compounds and uses thereof” (Genentech, Inc., priority 2010, dated 2014).

Experiments:
[1] = test system: HL-60 cells; assay: HL-60 cell proliferation assay (CellTiter-Glo); format: cell-based; conditions: 4 days incubation
Description: HL-60 cells are a Philadelphia Chromosome Negative (Ph-) cell line that serve as a control for the K-562 proliferation assay. Compounds that exert their activity by inhibition of Abl kinase should not inhibit proliferation of HL-60 cells unless such activity is due to off-target activity. This assay determines the number of viable cells in a culture by quantification of ATP. Promega's CellTiter-Glo® Luminescent Cell Viability Assay (CTG) is the reagent used for this determination. The assay is homogenous. Addition of the CTG reagent results in cell lysis and generation of a luminescent signal through the luciferase reaction. The luminescent signal is proportional to the amount of ATP present. For compounds that interfere with cell division and/or have effects on cell size, the readout is not necessarily proportional to cell number/viability. […] Cytostatic: Luminescence counts should be equivalent to counts obtained from a Day 0 read; and Cytotoxic: Luminescence counts should be equivalent to background. • Seed cells at 20000 cells/well in 20 ul cell plating media into a 384 well cell plate. […] Incubate in humidified CO2 incubator • Day 4a: Add 40 uL of Cell Titer-Glo solution • Day 4b: Incubate CTG reaction • Day 4c: Read luminescence

[2] = test system: K-562 cells; assay: K-562 cell proliferation assay (CellTiter-Glo); format: cell-based; conditions: Homo sapiens, K562, 96 h; expected value of assay standard; 4 days incubation; read-out: EC50 to inhibit K-562 cell growth
Description: The luminescent signal is proportional to the amount of ATP present.

| Compound | EC50 to inhibit HL-60 cell growth (in words) ([1]; expected result of assay standard) | EC50 [2] [µM] | EC50 ([1]; Homo sapiens, HL-60, 96 h, expected value of assay standard, read-out: EC50 to inhibit HL-60 cell growth) [µM] |
| --- | --- | --- | --- |
| CS(=O)(=O)O.Cc1ccc(NC(=O)c2ccc(CN3CCN(C)CC3)cc2)cc1Nc1nccc(-c2cccnc2)n1 [CAS NO 220127-57-1] | Inactive |  |  |
| COC(=O)Nc1nc2ccc(C(=O)c3cccs3)cc2[nH]1 [Nocodazole] |  | ~0.04 | ~0.04 |
